Results from patent US20220144812A1, “QUINOLINE DERIVATIVES AND THEIR USE FOR THE TREATMENT OF CANCER” (Epizyme, Inc., priority 2019, published 2022).

Legend:
EP300 (P300(1048-1664)) = target: T1, EP300 (P300(1048-1664)) (Homo sapiens, UniProt Q09472); assay: Biochemical assay for EP300, SAMDI; conditions: EP300, SAMDI; read-out: EP300 Biochemistry IC50
T1 construct: P300(1048-1664)
T1 sequence (Q09472 1048-1664): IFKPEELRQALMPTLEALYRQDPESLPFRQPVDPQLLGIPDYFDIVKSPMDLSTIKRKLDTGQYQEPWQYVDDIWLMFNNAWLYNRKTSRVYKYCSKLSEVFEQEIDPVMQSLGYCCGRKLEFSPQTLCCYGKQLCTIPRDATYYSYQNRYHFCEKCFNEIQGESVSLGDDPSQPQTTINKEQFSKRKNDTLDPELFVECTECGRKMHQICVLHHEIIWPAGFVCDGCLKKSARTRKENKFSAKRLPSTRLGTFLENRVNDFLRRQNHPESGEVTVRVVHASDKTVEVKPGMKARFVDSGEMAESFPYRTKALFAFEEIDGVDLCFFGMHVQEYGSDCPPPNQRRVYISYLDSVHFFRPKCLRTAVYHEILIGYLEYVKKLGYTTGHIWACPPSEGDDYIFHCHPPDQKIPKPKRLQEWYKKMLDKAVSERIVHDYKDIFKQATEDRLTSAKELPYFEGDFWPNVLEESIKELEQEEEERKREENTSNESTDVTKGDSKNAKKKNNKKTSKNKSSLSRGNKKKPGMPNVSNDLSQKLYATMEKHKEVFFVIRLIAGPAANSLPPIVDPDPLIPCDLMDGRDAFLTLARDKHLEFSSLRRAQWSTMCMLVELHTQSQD
Description: The following example describes materials and methods relating to a biochemical assay for EP300. IC50 values (micromolar (μM)) are summarized in Table 1, Table 2, and Table 3 under the column labeled: “EP300 Biochemistry IC50 (micromolar).”

647V bladder cell line = assay: 7-day proliferation assay, 647V; assay type: cell-based; conditions: Homo sapiens, 168 h, 7 days, CellTiter-Glo
Method: (§1) This example describes methods and materials for 7-day proliferation assay.
(§2) A total of 22 bladder cell lines were used (see table below). Cell lines were cultured in recommended growth media according to supplier.
(§3) Cells were in culture media at a density optimized for a 7-day culture in a final volume of 150 μL per well in white opaque 96-well plates. Cells were allowed to adhere for several hours (4-6 h) then compounds were added with HPD300 Digital Dispenser and placed into the incubator at 37° C., 5% CO2 for 7 days. After 7 days incubation, 100 μL of CellTiter-Glo® Luminescent Cell Viability Assay (Promega-G7573) reagents were added per well. After 20 minutes incubation luminescence was measured in plate reader. IC50 were calculated from a non-linear logarithmic growth curve.
(§4) IC50 values (nanomolar (nM)) are summarized in the table below, which depicts the inhibitory effect of certain compounds in bladder cell lines.

5637 bladder cell line = assay: 7-day proliferation assay, 5637; assay type: cell-based; conditions: 168 h; 5637, 7 days, CellTiter-Glo
Method: as §1, §2, §3, §4

[1] = system: BFTC905 bladder cell line; assay: 7-day proliferation assay, BFTC905; assay type: cell-based; conditions: Homo sapiens, BFTC-905, 168 h; BFTC905, 7 days, CellTiter-Glo
Method: as §1, §2, §3, §4

[2] = system: HB-CLS-2 bladder cell line; assay: 7-day proliferation assay, HB-CLS-2; assay type: cell-based; conditions: 168 h; HB-CLS-2, 7 days, CellTiter-Glo
Method: as §1, §2, §3, §4

HT1197 bladder cell line = assay: 7-day proliferation assay, HT1197; assay type: cell-based; conditions: Homo sapiens, 168 h; HT1197, 7 days, CellTiter-Glo
Method: as §1, §2, §3, §4

HT1376 bladder cell line = assay: 7-day proliferation assay, HT1376; assay type: cell-based; conditions: Homo sapiens, HT-1376, 168 h; HT1376, 7 days, CellTiter-Glo
Method: as §1, §2, §3, §4

JMSU1 bladder cell line = assay: 7-day proliferation assay, JMSU1; assay type: cell-based; conditions: JMSU-1, 168 h; JMSU1, 7 days, CellTiter-Glo
Method: as §1, §2, §3, §4

KMBC2 bladder cell line = assay: 7-day proliferation assay, KMBC2; assay type: cell-based; conditions: 168 h; KMBC2, 7 days, CellTiter-Glo
Method: as §1, §2, §3, §4

RT4 bladder cell line = assay: 7-day proliferation assay, RT4; assay type: cell-based; conditions: 168 h; RT4, 7 days, CellTiter-Glo
Method: as §1, §2, §3, §4

SCABER bladder cell line = assay: 7-day proliferation assay, SCABER; assay type: cell-based; conditions: Homo sapiens, 168 h, 7 days, CellTiter-Glo
Method: as §1, §2, §3, §4

SW1710 bladder cell line = assay: 7-day proliferation assay, SW1710; assay type: cell-based; conditions: Homo sapiens, 168 h; SW1710, 7 days, CellTiter-Glo
Method: as §1, §2, §3, §4

TCCSUP bladder cell line = assay: 7-day proliferation assay, TCCSUP; assay type: cell-based; conditions: Homo sapiens, TCC-SUP, 168 h, 7 days, CellTiter-Glo
Method: as §1, §2, §3, §4

UBLC1 bladder cell line = assay: 7-day proliferation assay, UBLC1; assay type: cell-based; conditions: 168 h; UBLC1, 7 days, CellTiter-Glo
Method: as §1, §2, §3, §4

[3] = system: UM-UC-3 bladder cell line; assay: 7-day proliferation assay, UM-UC-3; assay type: cell-based; conditions: Homo sapiens, UMUC3, 168 h; UM-UC-3, 7 days, CellTiter-Glo
Method: as §1, §2, §3, §4

CLS439 bladder cell line = assay: 7-day proliferation assay, CLS439; assay type: cell-based; conditions: 168 h; CLS439, 7 days, CellTiter-Glo
Method: as §1, §2, §3, §4

Row | IC50 (EP300 (P300(1048-1664))) [nM] | IC50 (HT1376 bladder cell line) [nM] | IC50 (SW1710 bladder cell line) [nM] | SMILES | IC50 (647V bladder cell line) [nM] | IC50 (5637 bladder cell line) [nM] | IC50 [1] [nM] | IC50 [2] [nM] | IC50 (HT1197 bladder cell line) [nM] | IC50 (JMSU1 bladder cell line) [nM] | IC50 (KMBC2 bladder cell line) [nM] | IC50 (RT4 bladder cell line) [nM] | IC50 (SCABER bladder cell line) [nM] | IC50 (TCCSUP bladder cell line) [nM] | IC50 (UBLC1 bladder cell line) [nM] | IC50 [3] [nM] | IC50 (CLS439 bladder cell line) [nM]
1 | 6.5 | 1250 | 184 | CCn1ncc(CN(C)C(=O)c2cc(-c3ccc(NC4CN(C)C4)c(C)n3)nc3ccc(Cl)cc23)c1C [Compound 480] | 52 | 147 | 110 | 344 | 112 | 546 | 1810 | 174 | 172 | 10000 | 234 | 584 | 480
2 | 18.7 | 2070 | 143 | CCc1ncc(CN(C)C(=O)c2cc(-c3ccc(NCCN(C)C)c(C)n3)nc3ccc(Cl)cc23)n1C [Compound 577] | 53.5 | 111 | 132 | 240 | 234 | 997 | 896 | 199 | 182 | 10000 | 427 | 1100 | 461
3 | 4.4 | 3890 | 290 | CCn1ncc(CN(C)C(=O)c2cc(-c3ccc(NCCNC)c(C)n3)nc3ccc(Cl)cc23)c1C [Compound 3, 6-chloro-N-[(1-ethyl-5-methyl-1H-pyrazol-4-yl)methyl]-N-methyl-2-(6-methyl-5-{[2-(methylamino)ethyl]amino}pyridin-2-yl)quinoline-4-carboxamide] | 127 | 133 | 122 | 220 | 154 | 378 | 7640 | 158 | 249 | 7600 | 141 | 792 | 619
4 | 22 | 2760 | 190 | CCc1noc(CN(C)C(=O)c2cc(-c3ccc(NCCNC)c(C)n3)nc3ccc(Cl)cc23)c1C [Compound 537] | 125 | 197 | 224 | 434 | 346 | 748 | 1600 | 344 | 252 | 10000 | 494 | 1380 | 849
